Measurements from article PMC11056980 (Journal of medicinal chemistry, 2024).
“Also recorded” adds a separate entry of the source. Residues, ends and D or L forms follow the SMILES beside them. *: point of attachment. Cbz = O=C(OCc1ccccc1)*

Legend:
[1] = molecular target: M^Pro-eGFP fusion protein (Severe acute respiratory syndrome coronavirus 2, UniProt P0DTD1, Q3569G); format: cell-based, SARS-CoV-2
M^Pro = M^Pro (Severe acute respiratory syndrome coronavirus 2, UniProt P0DTD1); format: cell-based, SARS-CoV-2
[2] = system: recombinant SARS-CoV-2 Δ3678 mGFP containing an NSP5 E166A mutation; format: cell-based
[3] = system: SARS-CoV-2 delta variant hCoV-19/USA/MD-HP05647/2021; format: cell-based
[4] = system: recombinant SARS-CoV-2 Δ3678 mGFP containing an NSP5 E166A mutation; conditions: cited from earlier work

SMILES: CC(C)C[C@@H](C=O)NC(=O)[C@H](CC(C)C)NC(=O)[C@H](CC(C)C)NC(=O)OCc1ccccc1 [MG132, reference compound] (Cbz-Leu-Leu-Leu-aldehyde)
- Effect of proteasome inhibitor pretreatment on MPD2-induced M^Pro degradation [1]: effectively rescued

SMILES: C[C@@H](OC(C)(C)C)[C@H](NC(=O)OCc1cccc(OCCCCCCOc2cccc3c2C(=O)N(C2CCC(=O)NC2=O)C3=O)c1)C(=O)N[C@@H](CC1CCCCC1)C(=O)N[C@H](C=O)C[C@@H]1CCNC1=O (some centres unmarked) [MPD2]
- M^Pro degradation during SARS-CoV-2 infection (M^Pro): most potent degrader
- greater potency against NSP5 E166A mutant virus compared to wild-type Δ3678 mGFP [2]: 5 fold
- antiviral synergy with nirmatrelvir [3]: synergistic effects
- M^Pro degradation in CRBN knockout vs wildtype CRBN cells [1]: significant rescue of intracellular M^Pro
- M^Pro degradation, time course [1]: significant degradation; also recorded: nearly maximal degradation

SMILES: C[C@@H](OC(C)(C)C)[C@H](NC(=O)OCc1ccccc1)C(=O)N[C@@H](CC1CCCCC1)C(=O)N[C@H](C=O)C[C@@H]1CCNC1=O [MPI8, reference compound]
- Effect of pretreatment on MPD2-induced M^Pro degradation (competition) [1]: completely blocked

SMILES: CC(C)(C)[C@H](NC(=O)C(F)(F)F)C(=O)N1C[C@H]2[C@@H]([C@H]1C(=O)N[C@H](C#N)C[C@@H]1CCNC1=O)C2(C)C [nirmatrelvir]
- resistance conferred by NSP5 E166A mutation [4]: 10 fold
